Results as given in US8415308B2, “1′-substituted-carba-nucleoside prodrugs for antiviral treatment” (Gilead Sciences, Inc., priority 2010, dated 2013).

Each compound was assayed against T1, HCV Δ21 NS5b polymerase (Hepatitis C virus genotype 1b, UniProt Q9WMX2) (assay: HCV IC50 determination, NS5b polymerase assay). Conditions: not given.
T1 construct: 75 nM HCV Δ21 NS5b polymerase
Type: biochemical
Description: Assay Protocol: NS5b polymerase assay (40 μL) was assembled by adding 28 μL polymerase mixture (final concentration: 50 mM Tris-HCl at pH 7.5, 10 mM KCL, 5 mM MgCl2, 1 mM DTT, 10 mM EDTA, 4 ng/μL of RNA template, and 75 nM HCV Δ21 NS5b polymerase) to assay plates followed by 4 μL of compound dilution. The polymerase and compound were pre-incubated at 35° C. for 10 minute before the addition of 8 μL of nucleotide substrate mixture (33P-α-labeled competing nucleotide at KM and 0.5 mM of the remaining three nucleotides). The assay plates were covered and incubated at 35° C. for 90 min. Reactions were then filtered through 96-well DEAE-81 filter plates via vacuum. The filter plates were then washed under vacuum with multiple volumes of 0.125 M NaHPO4, water, and ethanol to remove unincorporated label. Plates were then counted on TopCount to assess the level of product synthesis over background controls. The IC50 value is determined using Prism fitting program.
Work on C[C@@]1(O)[C@H](O)[C@@H](COP(=O)(O)OP(=O)(O)OP(=O)(O)O)O[C@@]1(C#N)c1ccc2c(N)ncnn12 [Compound 7] yielded an IC50 of less than 1000 nM.

What follows are compounds tested on Replicon cells (assay: HCV EC50 determination in replicon cells (luciferase)). Conditions: Hepatitis C virus, 72 h.
Type: cell-based
Description: Replicon cells were seeded in 96-well plates at a density of 8×10^3 cells per well in 100 μL of culture medium, excluding Geneticin. Compound was serially diluted in 100% DMSO and then added to the cells at a 1:200 dilution, achieving a final concentration of 0.5% DMSO and a total volume of 200 μL. Plates were incubated at 37° C. for 3 days, after which culture medium was removed and cells were lysed in lysis buffer provided by Promega's luciferase assay system. Following the manufacturer's instruction, 100 μL of luciferase substrate was added to the lysed cells and luciferase activity was measured in a TopCount luminometer.
The specific activity observed may vary according to and depending on the particular replicon tested, the active compound selected or whether there are present pharmaceutical carriers, as well as the type of formulation and mode of administration employed, and such expected variations or differences in the results are contemplated in accordance with practice of the present invention.
CC(C)OC(=O)[C@H](C)NP(=O)(OC[C@H]1O[C@@](C#N)(c2ccc3c(N)ncnn23)[C@](C)(O)[C@@H]1O)Oc1ccccc1 (stereo partly drawn) [Compound 6] was tested, and the EC50 was 480 to 1800 nM.
Work on CC(C)OC(=O)[C@H](C)N[P@](=O)(OC[C@H]1O[C@@](C#N)(c2ccc3c(N)ncnn23)[C@](C)(O)[C@@H]1OC(=O)C(C)C)Oc1ccccc1 [Compound 8A] yielded an EC50 of 96 to 360 nM.
CC(C)OC(=O)[C@H](C)N[P@@](=O)(OC[C@H]1O[C@@](C#N)(c2ccc3c(N)ncnn23)[C@](C)(O)[C@@H]1OC(=O)C(C)C)Oc1ccccc1 [Compound 8B] showed an EC50 of 460 to 1900 nM.
CC(C)OC(=O)[C@H](C)NP(=O)(OC[C@H]1O[C@@](C#N)(c2ccc3c(N)ncnn23)[C@](C)(O)[C@@H]1OC(=O)C(C)C)Oc1ccccc1 (stereo partly drawn) [Compound 8] gave an EC50 of 140 to 520 nM.

Same assay, conditions: Hepatitis C virus, 72 h; replicon cells, 3 days, luciferase activity; read-out: EC50
For C[C@@]1(O)[C@H](O)[C@@H](CO)O[C@@]1(C#N)c1ccc2c(N)ncnn12 [Compound 5], the EC50 was greater than 89000 nM.
Compound CC(C)OC(=O)[C@H](C)NP(=O)(N[C@@H](C)C(=O)OC(C)C)OC[C@H]1O[C@@](C#N)(c2ccc3c(N)ncnn23)[C@](C)(O)[C@@H]1O [Compound 61] has an EC50 of 51000 nM.
With CC(C)OC(=O)[C@H](C)NP(=O)(N[C@@H](C)C(=O)OC(C)C)OC[C@H]1O[C@@](C#N)(c2ccc3c(N)ncnn23)[C@](C)(O)[C@@H]1OC(=O)C(C)C [Compound 64] the EC50 was 5380 nM.
Work on CC(=O)O[C@@H]1[C@@H](COP(=O)(N[C@@H](C)C(=O)OC(C)C)N[C@@H](C)C(=O)OC(C)C)O[C@@](C#N)(c2ccc3c(N)ncnn23)[C@]1(C)O [Compound 65] yielded an EC50 of 8400 nM.
